Experimental data as given in ChEMBL document CHEMBL1151757, “Synthesis, radiosynthesis, and biological evaluation of fluorine-18-labeled 2beta-carbo(fluoroalkoxy)-3beta-(3'-((Z)-2-haloethenyl)phenyl)nortropanes: candidate radioligands for in vivo imaging of the serotonin transporter with positron emission tomography” (J Med Chem, 2008).

Columns and labels:
[1] = Ratio of drug uptake in pons to cerebellum in anesthetized cynomolgus monkey after 18.5 mins postinjection; format: ADME, organism-based, Macaca fascicularis; conditions: in vivo
[2] = Ratio of drug uptake in pons to cerebellum in anesthetized cynomolgus monkey after 125 mins postinjection; format: ADME, organism-based, Macaca fascicularis; conditions: in vivo
[3] = Ratio of drug uptake in pons to cerebellum in anesthetized cynomolgus monkey after 225 mins postinjection; format: ADME, organism-based, Macaca fascicularis; conditions: in vivo, 3.75 h
[4] = Ratio of drug uptake in medulla to cerebellum in anesthetized cynomolgus monkey after 12.5 mins postinjection; format: ADME, organism-based, Macaca fascicularis; conditions: in vivo
[5] = Ratio of drug uptake in medulla to cerebellum in anesthetized cynomolgus monkey after 95 mins postinjection; format: ADME, organism-based, Macaca fascicularis; conditions: in vivo
[6] = Ratio of drug uptake in medulla to cerebellum in anesthetized cynomolgus monkey after 155 mins postinjection; format: ADME, organism-based, Macaca fascicularis; conditions: in vivo
[7] = Drug uptake in anesthetized cynomolgus monkey brain occipital lobe after 3.5 mins postinjection; format: ADME, organism-based, Macaca fascicularis; conditions: in vivo
[8] = Drug uptake in anesthetized cynomolgus monkey brain occipital lobe after 6.5 mins postinjection; format: ADME, organism-based, Macaca fascicularis; set-up: unit not given here; conditions: in vivo
[9] = Drug uptake in anesthetized cynomolgus monkey brain occipital lobe after 85 mins postinjection; format: ADME, organism-based, Macaca fascicularis; conditions: in vivo
[10] = Drug uptake in anesthetized cynomolgus monkey brain occipital lobe after 115 mins postinjection; format: ADME, organism-based, Macaca fascicularis; conditions: in vivo
[11] = Drug uptake in anesthetized cynomolgus monkey brain occipital lobe after 135 mins postinjection; format: ADME, organism-based, Macaca fascicularis; conditions: in vivo, 2.25 h
[12] = Drug uptake in anesthetized cynomolgus monkey brain occipital lobe after 165 mins postinjection; format: ADME, organism-based, Macaca fascicularis; conditions: in vivo, 2.75 h
[13] = Drug uptake in anesthetized cynomolgus monkey brain frontal lobe after 45 mins postinjection; format: ADME, organism-based, Macaca fascicularis; conditions: in vivo, 0.75 h
[14] = Drug uptake in anesthetized cynomolgus monkey brain frontal lobe after 125 mins postinjection; format: ADME, organism-based, Macaca fascicularis; conditions: in vivo
[15] = Ratio of drug uptake in midbrain to cerebellum in anesthetized cynomolgus monkey after 225 mins postinjection; format: ADME, organism-based, Macaca fascicularis; conditions: in vivo, 3.75 h
[16] = Ratio of drug uptake in midbrain to cerebellum in anesthetized cynomolgus monkey after 235 mins postinjection; format: ADME, organism-based, Macaca fascicularis; conditions: in vivo
[17] = Ratio of drug uptake in occipital lobe to cerebellum in anesthetized cynomolgus monkey after 135 mins postinjection; format: ADME, organism-based, Macaca fascicularis; conditions: in vivo, 2.25 h
Putamen [18] = experiment: Drug uptake in anesthetized cynomolgus monkey brain putamen after 125 mins postinjection; format: ADME, organism-based, Macaca fascicularis; conditions: in vivo
Putamen [19] = experiment: Drug uptake in anesthetized cynomolgus monkey brain putamen after 155 mins postinjection; format: ADME, organism-based, Macaca fascicularis; conditions: in vivo
Putamen [20] = experiment: Drug uptake in anesthetized cynomolgus monkey brain putamen after 215 mins postinjection; format: ADME, organism-based, Macaca fascicularis; conditions: in vivo
Putamen [21] = experiment: Drug uptake in anesthetized cynomolgus monkey brain putamen after 225 mins postinjection; format: ADME, organism-based, Macaca fascicularis; conditions: in vivo, 3.75 h
[22] = Ratio of drug uptake in occipital lobe to cerebellum in anesthetized cynomolgus monkey after 235 mins postinjection; format: ADME, organism-based, Macaca fascicularis; conditions: in vivo
[23] = Ratio of drug uptake in frontal lobe to cerebellum in anesthetized cynomolgus monkey after 75 mins postinjection; format: ADME, organism-based, Macaca fascicularis; conditions: in vivo, 1.25 h
Midbrain [24] = experiment: Drug uptake in anesthetized cynomolgus monkey brain midbrain after 135 mins postinjection; format: ADME, organism-based, Macaca fascicularis; conditions: in vivo, 2.25 h
Midbrain [25] = experiment: Drug uptake in anesthetized cynomolgus monkey brain midbrain after 235 mins postinjection; format: ADME, organism-based, Macaca fascicularis; conditions: in vivo
Pons [26] = experiment: Drug uptake in anesthetized cynomolgus monkey brain pons after 12.5 mins postinjection; format: ADME, organism-based, Macaca fascicularis; conditions: in vivo
Pons [27] = experiment: Drug uptake in anesthetized cynomolgus monkey brain pons after 15.5 mins postinjection; format: ADME, organism-based, Macaca fascicularis; conditions: in vivo
[28] = Ratio of drug uptake in frontal lobe to cerebellum in anesthetized cynomolgus monkey after 235 mins postinjection; format: ADME, organism-based, Macaca fascicularis; conditions: in vivo
Pons [29] = experiment: Drug uptake in anesthetized cynomolgus monkey brain pons after 115 mins postinjection; format: ADME, organism-based, Macaca fascicularis; conditions: in vivo
Pons [30] = experiment: Drug uptake in anesthetized cynomolgus monkey brain pons after 135 mins postinjection; format: ADME, organism-based, Macaca fascicularis; conditions: in vivo, 2.25 h
Medulla [31] = experiment: Drug uptake in anesthetized cynomolgus monkey brain medulla after 0.5 mins postinjection; format: ADME, organism-based, Macaca fascicularis; conditions: in vivo
Medulla [32] = experiment: Drug uptake in anesthetized cynomolgus monkey brain medulla after 6.5 mins postinjection; format: ADME, organism-based, Macaca fascicularis; conditions: in vivo
Medulla [33] = experiment: Drug uptake in anesthetized cynomolgus monkey brain medulla after 35 mins postinjection; format: ADME, organism-based, Macaca fascicularis; conditions: in vivo
Medulla [34] = experiment: Drug uptake in anesthetized cynomolgus monkey brain medulla after 65 mins postinjection; format: ADME, organism-based, Macaca fascicularis; conditions: in vivo
[35] = Ratio of drug uptake in putamen to cerebellum in anesthetized cynomolgus monkey after 45 mins postinjection; format: ADME, organism-based, Macaca fascicularis; conditions: in vivo, 0.75 h
[36] = Ratio of drug uptake in putamen to cerebellum in anesthetized cynomolgus monkey after 165 mins postinjection; format: ADME, organism-based, Macaca fascicularis; conditions: in vivo, 2.75 h
[37] = Drug uptake in anesthetized cynomolgus monkey brain cerebellum after 75 mins postinjection; format: ADME, organism-based, Macaca fascicularis; conditions: in vivo, 1.25 h
[38] = Drug uptake in anesthetized cynomolgus monkey brain cerebellum after 85 mins postinjection; format: ADME, organism-based, Macaca fascicularis; conditions: in vivo
[39] = Drug uptake in anesthetized cynomolgus monkey brain cerebellum after 95 mins postinjection; format: ADME, organism-based, Macaca fascicularis; conditions: in vivo
[40] = Drug uptake in anesthetized cynomolgus monkey brain cerebellum after 175 mins postinjection; format: ADME, organism-based, Macaca fascicularis; conditions: in vivo
[41] = Drug uptake in anesthetized cynomolgus monkey brain cerebellum after 235 mins postinjection; format: ADME, organism-based, Macaca fascicularis; conditions: in vivo
[42] = Ratio of drug uptake in putamen to cerebellum in anesthetized cynomolgus monkey after 235 mins postinjection; format: ADME, organism-based, Macaca fascicularis; conditions: in vivo
[43] = Ratio of drug uptake in thalamus to cerebellum in anesthetized cynomolgus monkey after 9.5 mins postinjection; format: ADME, organism-based, Macaca fascicularis; conditions: in vivo
Caudate [44] = experiment: Drug uptake in anesthetized cynomolgus monkey brain caudate after 4.5 mins postinjection; format: ADME, organism-based, Macaca fascicularis, Caudate nucleus; conditions: in vivo, 0.075 h
Caudate [45] = experiment: Drug uptake in anesthetized cynomolgus monkey brain caudate after 175 mins postinjection; format: ADME, organism-based, Macaca fascicularis, Caudate nucleus; conditions: in vivo
[46] = Ratio of drug uptake in occipital lobe to cerebellum in anesthetized cynomolgus monkey after 4.5 mins postinjection; format: ADME, organism-based, Macaca fascicularis; conditions: in vivo, 0.075 h
[47] = Ratio of drug uptake in occipital lobe to cerebellum in anesthetized cynomolgus monkey after 18.5 mins postinjection; format: ADME, organism-based, Macaca fascicularis; conditions: in vivo
Thalamus [48] = experiment: Drug uptake in anesthetized cynomolgus monkey brain thalamus after 2.5 mins postinjection; format: ADME, organism-based, Macaca fascicularis; set-up: unit not given here; conditions: in vivo
Putamen [49] = experiment: Drug uptake in anesthetized cynomolgus monkey brain putamen after 4.5 mins postinjection; format: ADME, organism-based, Macaca fascicularis; set-up: unit not given here; conditions: in vivo, 0.075 h
Thalamus [50] = experiment: Drug uptake in anesthetized cynomolgus monkey brain thalamus after 145 mins postinjection; format: ADME, organism-based, Macaca fascicularis; set-up: unit not given here; conditions: in vivo
Thalamus [51] = experiment: Drug uptake in anesthetized cynomolgus monkey brain thalamus after 165 mins postinjection; format: ADME, organism-based, Macaca fascicularis; set-up: unit not given here; conditions: in vivo, 2.75 h
Midbrain [52] = experiment: Drug uptake in anesthetized cynomolgus monkey brain midbrain after 18.5 mins postinjection; format: ADME, organism-based, Macaca fascicularis; set-up: unit not given here; conditions: in vivo
Midbrain [53] = experiment: Drug uptake in anesthetized cynomolgus monkey brain midbrain after 22.5 mins postinjection; format: ADME, organism-based, Macaca fascicularis; set-up: unit not given here; conditions: in vivo, 0.375 h
[54] = Ratio of drug uptake in midbrain to cerebellum in anesthetized cynomolgus monkey after 2.5 mins postinjection; format: ADME, organism-based, Macaca fascicularis; conditions: in vivo
[55] = Ratio of drug uptake in midbrain to cerebellum in anesthetized cynomolgus monkey after 27.5 mins postinjection; format: ADME, organism-based, Macaca fascicularis; conditions: in vivo
[56] = Ratio of drug uptake in midbrain to cerebellum in anesthetized cynomolgus monkey after 125 mins postinjection; format: ADME, organism-based, Macaca fascicularis; conditions: in vivo

O=C(OCCC[18F])C1C2CCC(CC1c1cccc(/C=C\Br)c1)N2 (stereo unspecified)
Ratio [1]: 0.7 | Ratio [2]: 1.4 | Ratio [3]: 1.6 | Ratio [4]: 1 | Ratio [5]: 1.5 | Ratio [6]: 1.7 | Drug uptake [7]: 1.51 | Drug uptake [8]: 3.31 | Drug uptake [9]: 4.19 | Drug uptake [10]: 3.72 | Drug uptake [11]: 3.57 | Drug uptake [12]: 3.22 | Drug uptake [13]: 3.72 | Drug uptake [14]: 2.93 | Ratio [15]: 2.1 | Ratio [16]: 2.3 | Ratio [17]: 1.2 | Drug uptake (Putamen [18]): 4.82 | Drug uptake (Putamen [19]): 4.38 | Drug uptake (Putamen [20]): 3.51 | Drug uptake (Putamen [21]): 3.51 | Ratio [22]: 1.4 | Ratio [23]: 0.9 | Drug uptake (Midbrain [24]): 5.36 | Drug uptake (Midbrain [25]): 4.33 | Drug uptake (Pons [26]): 4.51 | Drug uptake (Pons [27]): 4.79 | Ratio [28]: 1.1 | Drug uptake (Pons [29]): 4.2 | Drug uptake (Pons [30]): 4.03 | Drug uptake (Medulla [31]): 0.02 | Drug uptake (Medulla [32]): 5.26 | Drug uptake (Medulla [33]): 5.92 | Drug uptake (Medulla [34]): 5.61 | Ratio [35]: 1.2 | Ratio [36]: 1.7 | Drug uptake [37]: 4.02 | Drug uptake [38]: 3.83 | Drug uptake [39]: 3.81 | Drug uptake [40]: 2.45 | Drug uptake [41]: 1.87 | Ratio [42]: 1.7 | Ratio [43]: 0.7 | Drug uptake (Caudate [44]): 2.17 | Drug uptake (Caudate [45]): 4.04 | Ratio [46]: 0.7 | Ratio [47]: 0.7 | Drug uptake (Thalamus [48]): 1.12 | Drug uptake (Putamen [49]): 3.11 | Drug uptake (Thalamus [50]): 4.62 | Drug uptake (Thalamus [51]): 4.31 | Drug uptake (Midbrain [52]): 5.49 | Drug uptake (Midbrain [53]): 5.88 | Ratio [54]: 1 | Ratio [55]: 1.1 | Ratio [56]: 1.8
